The source of these data is patent US8569372B2, “Method for preventing or treating a disease, disorder or condition induced by retina ischemia” (priority 2011, dated 2013).

Experiment [1] relates to cholinergic amacrine cells (ChAT immunoreactivity). The experiment can be described thus: ChAT immunofluorescence of the retina after ischaemia/reperfusion. It counts as in vivo, Wistar rats. To be noted: 100 μM SAC pre-treatment. Here is the method:
The rats (200-250 g) were anaesthetized and placed in a stereotaxic frame. The anterior chamber of one eye was cannulated with a 30-gauge needle connected to a 0.9% saline reservoir; this caused a high IOP (HIOP) of 120 mmHg for 60 minutes. Eye fundus whitening and a low ERG response confirmed induction of an ischaemic insult. A sham procedure was carried out on the controls. Drug administration involved the pre-administration (15-minute before 60-minute HIOP induced retinal ischaemia) of SAC (25, 50, 100 μM) or vehicle (saline; control). The ischemic eye of each test rat was treated with or without a single intravitreous injection of 5 μl of the test compound. In addition, SAC (100 μM) was administered to the non-ischaemic eye (normal) to see whether SAC has any adverse effects. In both cases, the paired normal eye was untreated. The rats were sacrificed and intracardially perfused with 0.9% normal saline (w/v). Then the rat retinas were removed, fixed with 4% (w/v) paraformaldehyde for 45 minutes and then transferred to 30% sucrose for cryosectioning. Sampling was carried out one or seven days after the sham-operation or induction of retinal ischaemia. […] The retinal sections were examined using a fluorescence microscope (Olympus BX61, Center Valley, Pa., USA).

The test system of a further experiment is VEGF. The experiment can be described thus: ELISA of VEGF protein in RGC-5 cells under H2O2 oxidative stress. To be noted: 100 μM SAC 15-minute pre-treatment, 500 μM H2O2 24 hours; control 91.91±21.72, H2O2 250.55±39.63; n=6. It counts as cell-based. Here is the method: (§1) In the enzyme-linked immunosorbent assay (ELISA), the cells (2.5×10^4 in each well) were plated into 96-well plates. Each well contains 200 μl of DMEM (control) without or with H2O2. Next, the cells were incubated at 37° C. for 1 day and then shifted to serum free medium for the following day. In order to stimulate oxidative stress, 500 μM H2O2 (Sigma-Aldrich 18304/k0250, St Louis, Mo., USA) was then added for 24 hours as described elsewhere. Depending on the experimental protocol, SAC or vehicle was added to some samples 15 minutes before adding H2O2. […] Total protein was determined using a bicinchoninic acid protein kit (Thermo Fisher Scientific Inc., IL, U.S.A.). The HIF-1 Alpha/VEGF/MMP-9 levels in the cells/medium were measured using various ELISA kits, namely HIF-1 Alpha (Uscn Life Science Inc., Wuhan 430056, China); VEGF-A (BMS277/2, Bender […], Austria) and MMP-9 Duoset (D911, R&D, Minneapolis, Minn., U.S.A.). […] The HIF-1 Alpha/VEGF/MMP-9 concentration of each sample was determined by constructing a standard curve using 100 μl of sample diluent containing various amounts of HIF-1 Alpha/VEGF/MMP-9 pure protein (0-1000 pg/ml). […] The absorbance (optical intensity, O.D.) was detected at 450 nm by spectrophotometer (ELx800, Biotek, Winooski, Vt., U.S.A.). […]

In another experiment the test system is RGC-5 cells. Briefly: RGC-5 cell viability under H2O2 induced oxidative stress. To be noted: RGC5, then 500 μM H2O2 24 hours, H2O2 alone 42.05±6.10%, n=6, read-out: RGC-5 cell viability (control: 100%). It counts as cell-based. As for the experimental part: The RGC-5 cell line was obtained from the American Type Culture Collection (ATCC, No. CRL-2302, Manassas, Va., USA). The RGC-5 cell line represents a lineage of neuronal precursor cells. The RGC-5 cells were maintained in Dulbecco's modified Eagle's medium (DMEM; Falcon, Becton Dickinson, N.J., U.S.A.) containing 10% fetal calf serum, 100 U/mL penicillin and 100 μg/mL streptomycin (Sigma-Aldrich) in a humidified atmosphere of 95% air and 5% CO2 at 37° C. Cell viability was evaluated by counting the cell number using a haemocytometer under an optical microscope.
In the enzyme-linked immunosorbent assay (ELISA), the cells (2.5×10^4 in each well) were plated into 96-well plates. Each well contains 200 μl of DMEM (control) without or with H2O2. Next, the cells were incubated at 37° C. for 1 day and then shifted to serum free medium for the following day. In order to stimulate oxidative stress, 500 μM H2O2 (Sigma-Aldrich 18304/k0250, St Louis, Mo., USA) was then added for 24 hours as described elsewhere. Depending on the experimental protocol, SAC or vehicle was added to some samples 15 minutes before adding H2O2.

The subject of the next experiment is HIF-1 Alpha. Briefly: ELISA of HIF-1 Alpha protein in RGC-5 cells under H2O2 oxidative stress. It counts as cell-based. Conditions: 100 μM SAC 15-minute pre-treatment, 500 μM H2O2 24 hours; control 1254.39±116.03, H2O2 1874.72±133.46; n=6. As for the experimental part: as §1

In general, viability refers to the share of living cells, or the viability signal relative to a control. With `C=CCSC[C@H](N)C(=O)O` [SAC, S-allyl L-cysteine], the “ChAT immunopositive amacrine cell bodies per field” value was 26±2 per field in experiment [1] (1 day after I/R, sham 39±3, vehicle 14±1) and 24±5 per field in experiment [1] (7 days after I/R, sham 38±3, vehicle 10±5). Moreover, the “VEGF protein level (ELISA)” value with VEGF came out at 121.61 ± 12.54 pg/mL. Also, in the experiment on RGC-5 cells (25 μM SAC 15-minute pre-incubation), the viability at 25 µM amounted to 47.7 ± 4.53%. In addition, the viability at 50 µM in the experiment with RGC-5 cells (50 μM SAC 15-minute pre-incubation) was found to be 57.5 ± 3.48%. For the same molecule, the viability at 100 µM in the experiment on RGC-5 cells (100 μM SAC 15-minute pre-incubation) is 70.2 ± 3.32%. Moreover, the “HIF-1 Alpha protein level (ELISA)” value in the experiment with HIF-1 Alpha stood at 1256.47 ± 157.62 pg/mL.
